Data from patent US7973075B2, “Kainate receptor-selective epimeric analogs of dysiherbaine” (priority 2007, dated 2011).
Where “and” joins values, the source holds several entries; their conditions need not be identical. Equal entries are not always repeated. Entries after “also recorded” stand apart in the source; their conditions may differ. Where two headings read alike, the source gives them in different places.

Legend:
GluR5-2a [1] = biological target: T1, GluR5-2a (Rattus norvegicus, UniProt P22756, DEL402-416); assay: Whole-cell patch clamp recordings, transfected HEK-293-T/17 cells, Example 2; format: cell-based; conditions: for recovery of glutamate-evoked currents after analog application, GluR5-2a: 30 μM analog; for agonist activity: analog-evoked currents from GluR5-2a receptors (words): 1 s test application of the analog at a high concentration (10-100 μM); for inhibition of glutamate-evoked current, GluR5-2a: pre-application of 1 μM analog, 10 mM glutamate; for time constant for recovery of glutamate-evoked currents, τ: after 2.5 min application of 30 μM analog
T1 construct: expressed in transfected cells; host or cells: HEK-293-T/17
Experimental: Cell Culture and Electrophysiology. HEK-293-T/17 cells were maintained in Dulbecco's modified Eagle's medium (DMEM) supplemented with 100 μg/mL penicillin, 100 μg/mL streptomycin, and 10% heat inactivated fetal bovine serum. One day before transfection, HEK-T/17 cells were plated at low density on glass coverslips coated with 100 μg/ml poly-D-lysine and 100 μg/ml collagen. Cells were transfected with receptor cDNAs ([…]) in combination with enhanced green fluorescent protein (eGFP) cDNA for visualization of transfected cells. Transfections were carried out with Fugene6 (Roche Applied Science) according to the manufacturer's protocol and used 2-3 days following transfection. Internal solution consisted of 110 mM CsF, 30 mM CsCl, 4 mM NaCl, 0.5 mM CaCl2, 10 mM HEPES, and 5 mM EGTA, and was adjusted to pH=7.3 with CsOH. The external solution contained 150 mM NaCl, 2.8 mM KCI, 2 mM CaCl2, 1 mM MgCl2, and 10 mM HEPES, adjusted to pH=7.3 with NaOH. Patch electrodes from thick-walled borosilicate glass (Warner Instruments, Hamden, Conn.) were pulled to a final resistance of 1.5 to 2.5 MO after fire polishing. […] To determine the pre-desensitization IC50 of selected analogs, several control glutamate (10 mM) applications were followed by a 2.5 minute application of various concentrations of 8-deoxy-neoDH, 9-deoxy-neoDH, or MSVIII-19, after which the analogs were co-applied with glutamate. A similar protocol was followed to measure the recovery of glutamate-evoked currents, with the exception that the analogs were not co-applied with glutamate. Whole cell patch clamp recordings were carried out using an Axopatch 200B amplifier (Axon Instruments). Data were analyzed with Origin 7.5 (OriginLab Corp.), and Prism4 (GraphPad Software Inc.); inhibition-response curves were plotted and fit with a one-site competition curve constrained to fixed minima (0) and maxima (100).
Because neoDH and its natural analog, dysiherbaine (DH), both act as KAR agonists, we tested each of the analogs for agonist activity using whole-cell patch clamp recordings. Application of saturating concentrations of glutamate (10 mM) to a transiently transfected HEK-293-T/17 cell was first done to obtain a rapidly activating and desensitizing control current; this was then followed by a test application of the analog at a high concentration (10-100 μM).
9-deoxy-neoDH and the di-deoxy antagonist, MSVIII-19, have very similar binding profiles on GluR5-2a and other subunits (Sanders et al., 2005), but both their functional activities and behavioral properties differ. 9-deoxy-neoDH elicits small but reproducible currents from GluR5-2a receptors (FIG. 8B), whereas MSVIII-19 behaves as an antagonist (Sanders et al., 2005). To further compare the activity of these compounds and the high-affinity agonist 8-deoxy-neoDH on GluR5-2a receptors, we determined their respective IC50s for pre-desensitization of the receptor (FIG. 9). Responses to 10 mM glutamate were elicited to determine the control current amplitudes for GluR5-2a expressing cells; receptors were then pre-desensitized with low concentrations of the analog (8-deoxy-neoDH or 9-deoxy-neoDH) before test co-applications with glutamate.
Several analogs, including the parent compounds DH and neoDH, induce a very stable, ligand-bound desensitized conformation of GluR5-2a and GluR6a receptors that occludes subsequent activation of the receptors for long periods of time. We measured the duration of the interaction of Group I analogs with GluR5-2a receptors by determining the time course of recovery of glutamate-evoked currents after application of the analogs (for 2.5 min) (FIG. 10). In FIG. 10A, traces on the left are representative control glutamate-evoked currents; traces on the right are glutamate-evoked currents ten minutes after exposure to 8-deoxy-neoDH, 9-deoxy-neoDH, or MSVIII-19 (each at 30 μM). […]

mice = conditions: Shoji et al., 2006, cited from earlier work; for ED50 seizure activity: i.c.v. injection, mice; for convulsant behavior, from the literature: i.c.v., Sasaki et al., 1999, Sakai et al., 2001a
GluR5-2a [2] = biological target: T1, GluR5-2a; assay: Radioligand binding ([3H]kainate displacement), HEK-293-T/17 membranes, Example 2; conditions: Cheng-Prusoff
Experimental: (§1) Radioligand binding. Membrane preparations from HEK-293-T/17 cells were prepared and used in radioligand binding assays as described previously (Sanders et al., 2005). Unlabeled analogs were used to displace [3H]kainate (10-20 nM, PerkinElmer Life and Analytical Sciences, Boston, Mass.) or [3H]AMPA (20 nM, PerkinElmer Life and Analytical Sciences, Boston, Mass.) from KARs and AMPARs, respectively. Nonspecific binding was determined in the presence of 1 mM glutamate. After 1 hour incubation at 4° C., samples were harvested by rapid filtration onto Whatman GF/C membranes. Upon addition of scintillation fluid, membranes were incubated for 1 hour at room temperature. A Beckman LS5000TD scintillation counter was used for quantification (Beckman Coulter Inc., Fullerton, Calif.). Data were plotted and fit with a one-site competition curve with fixed minima and maxima using Prism 4 (GraphPad Software, Inc). Ki's were calculated with the Cheng-Prusoff equation using the determined IC5o values and the radioligand Kd. Data were plotted and fit with a one-site competition curve with fixed minima (0) and maxima (100) (Prism4, GraphPad Software, Inc.). Correlation analysis was performed with these binding data and the seizure activity of each analog, represented as ED50 values.
(§2) The pharmacological profiles of the Group I analogs, 8-deoxy-neoDH and 9-deoxyneoDH, were analyzed initially in radioligand binding experiments with expressed recombinant AMPA and kainate receptor subunits. Displacement of [3H]kainate from cell membranes with a range of analog concentrations yielded IC50 values that were then used to calculate Ki values for each analog/receptor combination. Both Group 1 analogs retained high affinity only for GluR5-2a KAR subunits (FIG. 8A). […] Weak binding to other KAR and AMPAR subunits was observed, with all Ki values estimated at >10 μM (n=3-5; Table 3, FIG. 8A).
(§3) For comparison, the Ki values for neoDH and MSVIII-19 are included in the table (Sanders et al., 2005). Removal of the C9 hydroxyl eliminated binding to all receptor subunits (Ki values estimated at >100 μM), with the exception of GluR5-2a KARs.

GluR7a = biological target: T2, GluR7a (Rattus norvegicus, UniProt P42264); assay: as above
T2 construct: expressed in transfected cells; host or cells: HEK-293-T/17
Experimental: as §1, §2, §3

GluR6a = biological target: T3, GluR6a (Rattus norvegicus, UniProt P42260); assay: as above; conditions: for Ki: [3H]kainate displacement, Cheng-Prusoff
T3 construct: expressed in transfected cells; host or cells: HEK-293-T/17
Experimental: as §1, §2, §3

[3] = [3H]kainate displacement, Cheng-Prusoff, read-out: Ki GluR7a

T1 sequence (P22756 with tags, fused parts or gaps isoform P22756-2 limits assumed, stated change not applied): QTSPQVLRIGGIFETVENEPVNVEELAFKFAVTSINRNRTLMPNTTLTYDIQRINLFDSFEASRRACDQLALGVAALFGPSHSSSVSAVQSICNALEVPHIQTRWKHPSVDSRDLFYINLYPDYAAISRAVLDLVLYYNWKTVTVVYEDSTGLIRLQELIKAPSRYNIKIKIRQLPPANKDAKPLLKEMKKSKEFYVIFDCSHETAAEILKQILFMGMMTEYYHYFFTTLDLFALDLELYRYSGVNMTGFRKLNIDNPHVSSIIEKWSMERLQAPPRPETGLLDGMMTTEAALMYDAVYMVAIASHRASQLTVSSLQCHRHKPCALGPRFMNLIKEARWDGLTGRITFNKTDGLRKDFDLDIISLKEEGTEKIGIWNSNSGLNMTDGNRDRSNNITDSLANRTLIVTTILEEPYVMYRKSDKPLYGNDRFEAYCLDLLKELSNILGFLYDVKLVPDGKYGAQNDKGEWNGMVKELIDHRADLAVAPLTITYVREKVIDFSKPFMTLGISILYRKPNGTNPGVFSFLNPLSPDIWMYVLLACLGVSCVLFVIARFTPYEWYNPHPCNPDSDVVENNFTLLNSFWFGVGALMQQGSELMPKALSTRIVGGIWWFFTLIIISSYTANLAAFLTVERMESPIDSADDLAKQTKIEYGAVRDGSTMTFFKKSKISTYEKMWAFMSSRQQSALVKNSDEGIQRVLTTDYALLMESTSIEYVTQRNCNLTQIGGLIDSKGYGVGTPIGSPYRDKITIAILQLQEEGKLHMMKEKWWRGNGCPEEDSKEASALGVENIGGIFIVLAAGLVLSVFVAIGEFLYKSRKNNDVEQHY
T2 sequence (P42264 32-919): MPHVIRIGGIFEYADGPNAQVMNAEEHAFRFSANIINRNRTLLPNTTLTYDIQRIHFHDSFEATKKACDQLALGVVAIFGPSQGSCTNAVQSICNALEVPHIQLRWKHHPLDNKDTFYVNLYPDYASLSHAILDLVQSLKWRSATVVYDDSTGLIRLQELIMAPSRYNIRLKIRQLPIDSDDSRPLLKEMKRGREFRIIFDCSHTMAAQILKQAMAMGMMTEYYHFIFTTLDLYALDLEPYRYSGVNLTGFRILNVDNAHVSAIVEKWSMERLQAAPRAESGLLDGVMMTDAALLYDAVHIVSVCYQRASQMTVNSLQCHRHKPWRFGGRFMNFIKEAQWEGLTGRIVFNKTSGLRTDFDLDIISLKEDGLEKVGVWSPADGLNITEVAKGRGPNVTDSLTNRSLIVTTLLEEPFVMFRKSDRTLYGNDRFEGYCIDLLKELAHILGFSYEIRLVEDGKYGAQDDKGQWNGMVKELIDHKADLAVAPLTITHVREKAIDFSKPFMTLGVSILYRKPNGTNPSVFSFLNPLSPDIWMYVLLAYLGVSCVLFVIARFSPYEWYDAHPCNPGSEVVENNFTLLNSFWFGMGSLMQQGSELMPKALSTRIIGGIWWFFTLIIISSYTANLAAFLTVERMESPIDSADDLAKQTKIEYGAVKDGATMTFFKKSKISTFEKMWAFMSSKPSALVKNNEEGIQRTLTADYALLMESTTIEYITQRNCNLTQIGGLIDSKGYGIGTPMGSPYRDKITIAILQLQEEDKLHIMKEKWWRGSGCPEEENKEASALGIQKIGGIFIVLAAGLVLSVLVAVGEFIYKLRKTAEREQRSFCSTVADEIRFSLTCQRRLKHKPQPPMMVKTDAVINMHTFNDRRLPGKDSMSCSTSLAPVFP
T3 sequence (P42260 32-908): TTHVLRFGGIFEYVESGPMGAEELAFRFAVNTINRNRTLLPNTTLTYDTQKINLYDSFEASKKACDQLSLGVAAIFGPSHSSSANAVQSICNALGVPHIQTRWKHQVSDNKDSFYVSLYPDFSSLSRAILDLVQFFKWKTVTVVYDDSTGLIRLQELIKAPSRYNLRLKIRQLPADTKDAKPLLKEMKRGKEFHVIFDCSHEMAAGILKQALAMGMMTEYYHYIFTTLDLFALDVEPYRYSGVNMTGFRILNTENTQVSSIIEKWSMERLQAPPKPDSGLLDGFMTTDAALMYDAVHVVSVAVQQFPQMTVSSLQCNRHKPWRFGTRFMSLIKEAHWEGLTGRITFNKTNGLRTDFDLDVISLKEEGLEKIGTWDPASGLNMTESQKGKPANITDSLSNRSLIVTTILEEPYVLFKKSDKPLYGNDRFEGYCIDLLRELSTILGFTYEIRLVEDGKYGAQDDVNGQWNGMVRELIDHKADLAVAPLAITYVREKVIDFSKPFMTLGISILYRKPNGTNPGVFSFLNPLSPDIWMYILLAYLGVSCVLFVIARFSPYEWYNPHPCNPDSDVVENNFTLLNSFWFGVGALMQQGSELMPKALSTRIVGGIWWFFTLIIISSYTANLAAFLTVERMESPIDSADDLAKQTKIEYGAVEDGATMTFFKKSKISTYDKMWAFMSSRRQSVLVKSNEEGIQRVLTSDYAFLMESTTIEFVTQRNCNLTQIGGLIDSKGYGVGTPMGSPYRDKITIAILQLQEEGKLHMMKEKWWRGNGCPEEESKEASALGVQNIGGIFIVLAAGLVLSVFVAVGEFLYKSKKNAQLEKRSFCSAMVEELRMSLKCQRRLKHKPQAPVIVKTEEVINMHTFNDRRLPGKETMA

N[C@@H](C[C@@]1(C(=O)O)CC2OCC(O)C(O)C2O1)C(=O)O (single isomer, unassigned) [2,4-epi-neoDH, 2,4-epi-neodysiherbaine]
recovery of glutamate-evoked currents after analog application, GluR5-2a (GluR5-2a [1]): remained associated with the GluR5-2a receptor for many minutes
IC50 (GluR5-2a [1]; 10 mM glutamate in continued presence of analog, read-out: IC50 inhibition of glutamate-evoked currents, GluR5-2a): 7500 nM
agonist activity: analog-evoked currents from GluR5-2a receptors (words) (GluR5-2a [1]): failed to elicit detectable current; also recorded: antagonist (or possibly a very weak partial agonist); also recorded: fails to activate GluR5 or GluR6 receptors, even at 100 μM
agonist activity: analog-evoked currents from GluR5-2a receptors (words) (GluR5-2a [1]; listed as 2,4-epineoDH): fails to activate
ED50 seizure activity (mice): 11.4 nmol/mouse
ED50 seizure activity (mice; listed as 2,4epi-neoDH): 11.4 nmol/mouse
convulsant behavior, from the literature (mice): weakly convulsant
Ki (GluR5-2a [2]; read-out: Ki GluR5-2a): 2400 nM
binding to GluR7 receptor (GluR7a): Neither 2,4-epineoDH nor 4-epi-neoDH bound the GluR7 receptor appreciably
Ki (GluR7a; [3]): > 100000 nM
Ki (GluR6a; read-out: Ki GluR6a): 7700 nM

N[C@@H](C[C@@]1(C(=O)O)CC2OCC(O)C(O)C2O1)C(=O)O (single isomer, unassigned) [4-epi-neoDH, 4-epi-neodysiherbaine]
recovery of glutamate-evoked currents after analog application, GluR5-2a (GluR5-2a [1]): remained associated with the GluR5-2a receptor for many minutes
agonist activity: analog-evoked currents from GluR5-2a receptors (words) (GluR5-2a [1]): evoked small but detectable currents; also recorded: elicits large currents; also recorded: activates
ED50 seizure activity (mice): 1.7 nmol/mouse
convulsant behavior, from the literature (mice): weakly convulsant
Ki (GluR5-2a [2]; read-out: Ki GluR5-2a): 559 nM and ~560 nM
binding to GluR7 receptor (GluR7a): Neither 2,4-epineoDH nor 4-epi-neoDH bound the GluR7 receptor appreciably
Ki (GluR7a; [3]): > 100000 nM
Ki (GluR6a; read-out: Ki GluR6a): 6700 nM

NC(CC1(C(=O)O)CC2OCC(O)C(O)C2O1)C(=O)O (stereo not drawn) [8,9-epi-neoDH, 8,9-epi-neodysiherbaine]
agonist activity: analog-evoked currents from GluR5-2a receptors (words) (GluR5-2a [1]): failed to activate GluR5-2a-expressing cells
agonist activity: analog-evoked currents from GluR5-2a receptors (words) (GluR5-2a [1]; listed as 8,9epi-neoDH): failed to elicit a detectable current
inhibition of glutamate-evoked currents in GluR5-2a-expressing cells (GluR5-2a [1]; high test concentrations, data not shown): modestly inhibited
Ki (GluR5-2a [2]; read-out: Ki GluR5-2a): 48000 nM
Ki (GluR7a; [3]): > 100000 nM
Ki (GluR6a; read-out: Ki GluR6a): > 100000 nM

N[C@@H](C[C@]1(C(=O)O)C[C@H]2OC[C@@H](O)C[C@H]2O1)C(=O)O [8-deoxy-neoDH]
IC50 (GluR5-2a [1]): 0.238 nM
recovery of glutamate-evoked currents after analog application, GluR5-2a (GluR5-2a [1]): completely attenuated glutamate currents in response to glutamate for up to 15 min; also recorded: remained associated beyond the duration of the experiments
agonist activity: analog-evoked currents from GluR5-2a receptors (words) (GluR5-2a [1]): elicited currents; also recorded: full agonist, or a highly efficacious partial agonist; also recorded: full agonists or highly efficacious partial agonists; also recorded: GluR5 agonists
inhibition of glutamate-evoked current, GluR5-2a (GluR5-2a [1]): completely inhibited
ED50 seizure activity (mice): 238 pmol/mouse
Ki (GluR5-2a [2]; Ki GluR5-2a): 1.5 nM
Ki (GluR7a): 2900 nM
Ki (GluR6a; Ki GluR6a): 48000 nM

NC(CC1(C(=O)O)CC2OCC(O)C(O)C2O1)C(=O)O (stereo not drawn) [8-epi-neoDH, 8-epi-neodysiherbaine]
agonist activity: analog-evoked currents from GluR5-2a receptors (words) (GluR5-2a [1]): elicited rapidly activating currents
agonist activity: analog-evoked currents from GluR5-2a receptors (words) (GluR5-2a [1]; listed as 8-epineoDH): elicited large desensitizing currents with variable kinetics
ED50 seizure activity (mice): 283 pmol/mouse
Ki (GluR5-2a [2]; read-out: Ki GluR5-2a): 34 nM
Ki (GluR7a; [3]): 1700 nM
Ki (GluR6a; read-out: Ki GluR6a): 22000 nM

NC(CC1(C(=O)O)CC2OCC(F)C(O)C2O1)C(=O)O (stereo not drawn) [9-F-8-epi-neoDH]
agonist activity: analog-evoked currents from GluR5-2a receptors (words) (GluR5-2a [1]): elicited rapidly activating currents; also recorded: elicited large desensitizing currents with variable kinetics
ED50 seizure activity (mice): 374 pmol/mouse
Ki (GluR5-2a [2]; read-out: Ki GluR5-2a): 28 nM
Ki (GluR7a; [3]): > 100000 nM
binding affinity for GluR6a subunit (GluR6a): do not exhibit measurable affinity
Ki (GluR6a; read-out: Ki GluR6a): > 100000 nM

N[C@@H](C[C@]1(C(=O)O)C[C@H]2OCC[C@@H](O)[C@H]2O1)C(=O)O [9-deoxy-neoDH]
agonist activity: analog-evoked currents from GluR5-2a receptors (words) (GluR5-2a [1]): elicited currents; also recorded: very weak agonist; also recorded: GluR5 agonists
IC50 (GluR5-2a [1]; 2.5 min analog application, then co-application with 10 mM glutamate, read-out: IC50 for pre-desensitization of GluR5-2a receptors): 151 nM
time constant for recovery of glutamate-evoked currents, τ (GluR5-2a [1]): 1.5 s
inhibition of glutamate-evoked current, GluR5-2a (GluR5-2a [1]): inhibited but did not abolish
ED50 seizure activity (mice): 7.1 nmol/mouse
Ki (GluR5-2a [2]; read-out: Ki GluR5-2a): 169 nM
Ki (GluR7a; [3]): > 100000 nM
binding affinity for GluR6a subunit (GluR6a): do not exhibit measurable affinity
Ki (GluR6a; read-out: Ki GluR6a): > 100000 nM

NC(CC1(C(=O)O)CC2OCC(O)C(O)C2O1)C(=O)O (stereo not drawn) [9-epi-neoDH, 9-epi-neodysiherbaine]
agonist activity: analog-evoked currents from GluR5-2a receptors (words) (GluR5-2a [1]): elicited rapidly activating currents; also recorded: elicited very small amplitude, weakly desensitizing currents; also recorded: very weak partial agonists
ED50 seizure activity (mice): 8.6 nmol/mouse
Ki (GluR5-2a [2]; read-out: Ki GluR5-2a): 292 nM
Ki (GluR7a; [3]): > 100000 nM
binding affinity for GluR6a subunit (GluR6a): do not exhibit measurable affinity
Ki (GluR6a; read-out: Ki GluR6a): > 100000 nM

N[C@@H](C[C@]1(C(=O)O)C[C@H]2OCCC[C@H]2O1)C(=O)O [MSVIII-19, 8,9-dideoxy-neoDH]
time constant for recovery of glutamate-evoked currents, τ (GluR5-2a [1]): 1.4 s
ED50 seizure activity (mice): 6.3 nmol/mouse
convulsant behavior, from the literature (mice): sub-seizure stereotyped behavior followed by unresponsiveness
binding affinity for GluR6a subunit (GluR6a): do not exhibit measurable affinity
